Experimental data taken from patent US11912755B2, “Endostatin fragments and variants for use in treating fibrosis” (iBio, Inc., priority 2015, dated 2024).
“Also recorded” adds a separate entry of the source. Ends that are not written are not given here.

What was measured:
[1] = tested on: HGF; test: Genes regulated by E4: HGF; assay type: cell-based, human; conditions: HuF-T and mouse bleomycin model of pulmonary fibrosis; RT-qPCR, protein expression
Description: (§1) Several experiments have been performed to identify the mechanisms by which E4 exerts its anti-fibrotic activity. Real-time quantitative PCR (qPCR)-based arrays were performed on RNA extracted from primary human lung fibroblasts or mouse lung tissue stimulated with various fibrotic triggers in the absence and presence of E4 treatment in order to identify genes influenced by the endostatin peptide.
(§2) The arrays identified several genes that have been previously implicated in fibrosis to be influenced by E4 treatment. These genes included connective tissue growth factor (CTGF), insulin-like growth factor binding protein (IGFBP)-3, matrix metalloproteases (MMP)-1 and MMP-3, urokinase plasminogen activator (uPA), plasminogen activator inhibitor (PAI)-1, and hepatocyte growth factor (HGF) with levels either decreased or increased in the presence of E4 as shown in TABLE 5.

[2] = tested on: lysyl oxidase (LOX); conditions: Yamaguchi et al. 2012; cited from earlier work
[3] = tested on: Egr-1; test: Western blot of Egr-1 in primary human lung fibroblasts; assay type: cell-based; conditions: harvested after 24 hours
Description: FIG. 16. […] Reduction of Egr-1 levels parallels that of collagen, SMA, and fibronectin. Lane 1: vehicle (DMSO); Lane 2: E4; Lane 3: TGFβ, Lane 4 TGFβ followed by E4 after 60 minutes. The samples were harvested after 24 hours.
In addition, E4 increases levels of inhibitor of differentiation (ID)-1, a transcription factor that inhibits TGF-β effects (see FIG. 15). It was determined in a Western blot analysis that E4 reduces the levels of the master switch transcription factor, Egr-1 (see FIG. 16) in primary human lung fibroblasts, treated and harvested after 24 hours. The reduction of Egr-1 levels parallels a reduction in collagen, SMA and fibronectin. Egr-1 is known to mediate the effects of several fibrotic agents (including TGF-β and bleomycin).

[4] = tested on: MMP-1; test: Genes regulated by E4: MMP-1; assay type: cell-based, human; conditions: HuF-T; RT-qPCR, protein expression levels, zymography, MMP-1 activity assay
Description: as §1, §2

[5] = tested on: MMP-2; test: Gelatin zymography of MMP-2 in primary human lung fibroblasts; assay type: cell-based; conditions: for MMP-2 activity: E-4 following TGF-β
Excerpt: FIG. 14A-14B. FIG. 14A: E4 reduces fibrosis in vitro by inducing MMP-2 activity in primary human lung fibroblasts, thus resulting in increased degradation of collagen and other matrix proteins. […] Lane 1: Vehicle (DMSO); Lane 2: E-4; Lane 3: TGF-β; Lane 4: TGF-β followed by E4. FIG. 14B: Digital image showing that both total and active MMP-2 levels are increased in cells treated with TGF-β and E-4.

[6] = tested on: human primary skin fibroblasts; test: Western blot of ECM production in primary skin fibroblasts; assay type: cell-based; conditions: dermal fibroblasts of healthy controls, SSc or morphea patients
Description: (§3) Primary Fibroblast Culture. Human primary lung and skin fibroblasts were cultured. The explanted lungs of normal organ donors, patients with SSc or IPF, and clinically involved skin of SSc patients, a morphea patient and healthy donors were used for primary fibroblast culture. Approximately 2-cm pieces of peripheral lung and skin were minced and fibroblasts were cultured in Dulbecco's modified Eagle's medium (DMEM; Mediatech, Herndon, Va.) supplemented with 10% FBS, penicillin, streptomycin, and anti-mycotic agent, as previously described (Feghali et al., Arthritis Rheum 1999; 42:1451-7). All the cells were used between passages 3-6.
Western Blot Analysis. Cellular lysates were obtained from cultured fibroblasts as previously described (Pilewski et al., Am J Pathol 2005; 166:399-407). […] Cellular lysates were analyzed by Western blot. Signals were detected following incubation with horseradish peroxidase-conjugated secondary antibody and chemiluminescence (Perkin Elmer Life Sciences, Inc., Boston, Mass.). The intensity of individual bands with expected molecular sizes was semi-quantitatively analyzed using the image/J® software available at on the Internet (/rsb.info.nih.gov/ij/index.html), and normalized to individual GAPDH intensity.

[7] = tested on: human primary lung fibroblasts; test: Western blot of FN, Col1α1 and α-SMA in primary lung fibroblasts; assay type: cell-based
Description: as §3
Western Blot Analysis. Cellular lysates were obtained from cultured fibroblasts as previously described (Pilewski et al., Am J Pathol 2005; 166:399-407). Briefly, 2.0×10^5 primary fibroblasts were cultured in 35-mm wells in 0.5% FBS-containing medium supplemented with 10 ng/ml of human recombinant TGF-β or PBS as vehicle control for 24 h, […] In some experiments, endostatin peptides were used without TGF-β stimulation. Cellular lysates were analyzed by Western blot. Signals were detected following incubation with horseradish peroxidase-conjugated secondary antibody and chemiluminescence (Perkin Elmer Life Sciences, Inc., Boston, Mass.). The intensity of individual bands with expected molecular sizes was semi-quantitatively analyzed using the image/J® software available at on the Internet (/rsb.info.nih.gov/ij/index.html), and normalized to individual GAPDH intensity.

[8] = tested on: uPA; test: Genes regulated by E4: uPA; assay type: cell-based, human; conditions: HuF-T; RT-qPCR, protein expression levels, enzyme activity
Description: as §1, §2

[9] = IPF fibroblasts, 5, 10 and 20 μg/ml, vs vehicle control

E4: SEQ ID NO: 21, amino acids 133-180 of human endostatin with a C-terminal amide (SYCETWRTEAPSATGQASSLLGGRLLGQSAASCHHAYIVLCIENSFMT-NH2; cysteine pairing not given here)
Effect of E4 peptide on HGF [1]: induces conversion of pro-HGF to its active chains; also recorded: Increase | levels of lysyl oxidase (LOX) [2]: reduces | Egr-1 levels [3]: reduces | Egr-1 levels ([3]; listed as E-4): reducing levels | Effect of E4 peptide on MMP-1 [4]: induces; also recorded: Increase; also recorded: increased levels and activity | MMP-2 activity [5]: induction and activation | MMP-2 activity ([5]; listed as E-4): increased MMP-2 activity | total and active MMP-2 levels ([5]; cells treated with TGF-β and E-4): increased | TGF-β-induced ECM production [6]: reduced | Col1α1 levels [7, 9]: dose-dependently reduced | FN levels [7, 9]: modest effect | FN and Col1α1 levels ([7]; fibrotic (IPF) lung fibroblasts, absence of TGF-β stimulation): decreased | FN and Col1α1 levels ([7]; normal human lung fibroblasts, TGF-β 24 h, then 5 μg/ml for 48 h): significantly suppressed | TGF-β-induced α-SMA levels ([7]; normal lung fibroblasts): decreased | Effect of E4 peptide on uPA [8]: Increase
